In article PMC10265666, “Lung SPLUNC1 Peptide Derivatives in the Lipid Membrane Headgroup Kill Gram-Negative Planktonic and Biofilm Bacteria” (Biomacromolecules, 2023):

Experiment: Circular dichroism secondary structure in G(−)IM ULVs
Type: physicochemical
Conditions: 10 μM peptide, 15 mM PBS pH 7, 37 °C
Method: Unilamellar vesicles (ULVs) of ∼600 Å diameter were prepared using an Avanti extruder: 200 μL of 20 mg/ml G(−)IM lipid in 15 mM PBS was extruded 21 times through Nucleopore filters of size 500 Å using 0.2 mL Hamilton syringes in the Avanti extruder. The final concentration of G(−)IM lipid in the ULVs was determined gravimetrically to be 15 mg/ml. Concentrated ULVs were added to 3 mL of 10 μM peptide in 15 mM PBS at pH 7 to create lipid/peptide molar ratios between 0:1 and 70:1. The samples remained at room temperature for ∼16 h before the CD measurement. Data were collected in 3 mL quartz cuvettes using a Jasco 1500 CD spectrophotometer at 37 °C in the Center for Nucleic Acids Science and Technology at Carnegie Mellon University. The samples were scanned from 200 to 240 nm 20 times, and the ellipticity (ϵ) results were averaged. Temperature was controlled at 37 °C via a Peltier element and water circulation through the sample compartment. Nitrogen gas was used at a flow rate between 20 and 25 ft^3/h (CFH). The parameters for scanning were: speed 100 nm/min, step size 1.0 nm, response time 1 second, bandwidth 1 nm, and sensitivity of 20 mdeg. OriginPro 2019 (OriginLab, Northampton, MA) was used to carry out a linear least-squares fit of the smoothed ellipticity traces to four secondary structural motifs representing α-helix, β-sheet, β-turn, and random coil.[20] This analysis gives a percentage match of each of the secondary structural motifs to the total sample ellipticity. Data were finally converted to mean residue ellipticity, taking into account the peptide concentration (10 μMolar) and number of amino acids (N), using the equation: MRE = (10^4/N)ϵ deg cm^2/dmol.

[1] = G(−)IM/peptide molar ratio 10:1
[2] = G(−)IM/peptide molar ratio 15:1
[3] = G(−)IM/peptide molar ratio 20:1
[4] = G(−)IM/peptide molar ratio 30:1
[5] = G(−)IM/peptide molar ratio 50:1
[6] = G(−)IM/peptide molar ratio 70:1

Work on `CC[C@H](C)[C@H](NC(=O)[C@@H](NC(=O)[C@H](CO)NC(=O)[C@H](CCCCN)NC(=O)[C@@H](NC(=O)[C@H](CCCCN)NC(=O)CNC(=O)[C@H](Cc1c[nH]c2ccccc12)NC(=O)[C@@H](NC(=O)CNC(=O)CNC(=O)[C@@H](NC(=O)[C@H](Cc1c[nH]c2ccccc12)NC(=O)CNC(=O)[C@H](CCCCN)NC(=O)[C@@H](NC(=O)[C@H](CCCCN)NC(=O)[C@H](CCCCN)NC(=O)[C@H](Cc1ccccc1)NC(=O)[C@H](Cc1ccccc1)NC(=O)[C@H](CCCCN)NC(=O)[C@H](CCCCN)NC(=O)[C@@H](N)CC(C)C)C(C)C)C(C)C)C(C)C)C(C)C)C(C)C)C(=O)N[C@@H](CCCCN)C(=O)O` (stereo in doubt) [A4-153] yielded a Random (G(−)IM/peptide molar ratio 0:1) of 57.7%, a α-helix (G(−)IM/peptide molar ratio 0:1) of 6.4% and a β-sheet (G(−)IM/peptide molar ratio 0:1) of 34.2%. The β-turn (G(−)IM/peptide molar ratio 0:1) was 1.7%, the Random (G(−)IM/peptide molar ratio 1:1) was 51.7% and the α-helix (G(−)IM/peptide molar ratio 1:1) was 11.9%. The β-sheet (G(−)IM/peptide molar ratio 1:1) was 32.4%, the β-turn (G(−)IM/peptide molar ratio 1:1) was 4.0% and the Random (G(−)IM/peptide molar ratio 5:1) was 62.9%. It also gave a α-helix (G(−)IM/peptide molar ratio 5:1) of 10.2%, a β-sheet (G(−)IM/peptide molar ratio 5:1) of 26.9% and a β-turn (G(−)IM/peptide molar ratio 5:1) of 0%. The Random [1] was 62.5%, the α-helix [1] was 14.8% and the β-sheet [1] was 17.7%. It also gave a β-turn [1] of 5.0%, a Random [2] of 15.6% and a α-helix [2] of 41.9%. It also gave a β-sheet [2] of 41.2%, a β-turn [2] of 1.3% and a Random [3] of 0%. For the same molecule, the α-helix [3] was 78.3%, the β-sheet [3] was 8.0% and the β-turn [3] was 13.7%. For the same molecule, the Random [4] was 4.6%, the α-helix [4] was 78.5% and the β-sheet [4] was 10.2%. The β-turn [4] was 6.7%, the Random [5] was 0% and the α-helix [5] was 77.4%. It also gave a β-sheet [5] of 13.6%, a β-turn [5] of 9.0% and a Random [6] of 0%. It also gave a α-helix [6] of 64.1%, a β-sheet [6] of 15.1% and a β-turn [6] of 20.8%.
